In patent US12583851B2, “Heteroaryl-substituted pyrazine derivatives as pesticides” (Elanco Animal Health GmbH, priority 2019, dated 2026):

Legend:
Assay type in all cases: in vivo
[1] = tested on: adult mosquitoes Aedes aegypti strain MONHEIM; test: Aedes aegypti test (AEDSAE surface treatment & contact assay); details: 24 hours after contact, read-out: mortality (efficacy); for mortality at 20 mg/m2: surface concentration 20 mg/m^2, 30 minutes exposure
Protocol: Aedes aegypti Test (AEDSAE Surface Treatment & Contact Assay)
(§1) Solvent: Aceton+2000 ppm rapeseed oil methyl ester (RME)
(§2) In order to produce a sufficient, active ingredient containing solution it is necessary to solve the test compound in the solvent-mix (acetone at 2 mg/ml/RME 2000 ppm). This solution is pipetted onto a glazed tile and after evaporation of the acetone, adult mosquitoes of the species Aedes aegypti strain MONHEIM are placed onto the dried surface. The exposure time is 30 minutes.
(§3) Mortality in percent (%) is determined 24 hours after contact of the insects to the treated surface. 100% mortality means that all tested insects are dead, whereas 0% means that no insect died.

[2] = tested on: larvae of the southern green stink bug (Nezara viridula); test: Nezara viridula spray test; details: 96 h, 100 g/ha, barley plants, after 4 days
Protocol: Nezara viridula—Spray Test
(§4) Solvent: 78.0 parts by weight of acetone • • 1.5 parts by weight of dimethylformamide
(§5) Emulsifier: alkylarylpolyglycol ether
(§6) To produce a suitable preparation of active compound, 1 part by weight of active compound is mixed with the stated amount of solvent, and the concentrate is diluted with water, containing an emulsifier concentration of 1000 ppm, to the desired concentration. Further test concentrations are prepared by dilution with emulsifier containing water.
Barley plants (Hordeum vulgare) infested with larvae of the southern green stink bug (Nezara viridula) are sprayed with a test solution containing the desired concentration of the active ingredient.
After 4 days mortality in % is determined. 100% means all the stink bugs have been killed; 0% means none of the stink bugs have been killed.

[3] = tested on: adult mosquitoes Anopheles funestus strain FUMOZ-R; test: Anopheles funestus test (ANPHFU surface treatment & contact assay); details: 24 hours after contact, read-out: mortality (efficacy); for mortality at 20 mg/m2: surface concentration 20 mg/m^2, 30 minutes exposure
Protocol: Anopheles funestus Test (ANPHFU Surface Treatment & Contact Assay)
as §1
as §2, with “Anopheles funestus” for “Aedes aegypti”, “FUMOZ-R (Hunt et al., Med. Vet. Entomol. 2005 Sep. 19(3): 271-275)” for “MONHEIM”
as §3

[4] = tested on: adult engorged female ticks (Rhipicephalus microplus); test: Rhipicephalus (Boophilus) microplus injection test; details: 168 h, 4 μg/animal, egg deposition after 7 days, read-out: efficacy (infertile eggs)
Protocol: Rhipicephalus (Boophilus) microplus—Injection Test
(§7) Solvent: dimethyl sulfoxide
To produce a suitable preparation of active compound, 10 mg of active compound are dissolved in 0.5 mL solvent, and the concentrate is diluted with solvent to the desired concentration.
Five adult engorged female ticks (Rhipicephalus microplus) are injected with 1 μL compound solution into the abdomen. The ticks are transferred into replica plates and incubated in a climate chamber.
After 7 days egg deposition of fertile eggs is monitored. Eggs where fertility is not visible are stored in a climate chamber till hatching after about 42 days. An efficacy of 100% means all eggs are infertile; 0% means all eggs are fertile.

[5] = tested on: adult brown dog ticks (Rhipicephalus sanguineus); test: Rhipicephalus sanguineus in-vitro contact test, adult brown dog ticks; details: 48 h, 5 μg/cm^2 (=500 g/ha), after 48 hours, read-out: efficacy (ticks dead or moribund)
Procedure, shortened: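 Acetone solution coated on glass tube inner walls (900 ppm, giving 5 μg/cm^2); after drying, 5–10 adult ticks added and kept 48 h at room temperature. Efficacy scored as percent dead or moribund, i.e., ticks unable to climb away on a 45–50 °C heating plate within 5 min.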

[6] = tested on: Rhipicephalus (Boophilus) microplus larvae (strain Parkhurst, resistant against synthetic pyrethroids); test: Rhipicephalus (Boophilus) microplus in-vitro contact test, larval cattle tick; details: after 48 hours, read-out: efficacy (larvae dead or moribund); for pest or weed control at 1 µg/cm2, 100 g/ha: 1 μg/cm^2 (=100 g/ha); for pest or weed control at 5 µg/cm2, 500 g/ha: 5 μg/cm^2 (=500 g/ha)
Procedure, shortened: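 Acetone solutions were coated onto glass tube walls (900 ppm gives 5 μg/cm²); after drying, 20–50 pyrethroid-resistant Parkhurst larvae added and held at 27 °C, 85% RH. At 48 h, efficacy as % larvae dead or moribund, judged by loss of negative geotaxis.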

[7] = tested on: adult unfed cat fleas (Ctenocephalides felis); test: Ctenocephalides felis oral test; details: 48 h, 100 ppm in citrated cattle blood, after 2 days
Protocol: Ctenocephalides felis—Oral Test
as §7
To produce a suitable preparation of active compound, 10 mg of active compound are dissolved in 0.5 mL solvent, and the concentrate is diluted with citrated cattle blood to the desired concentration.
Approximately 20 adult unfed cat fleas (Ctenocephalides felis) are placed in a flea chamber whose top and bottom is covered with gauze. A chamber whose bottom is sealed with parafilm, is filled with the blood-compound solution and placed on top of the flea chamber, so that the fleas can suck the blood. The blood chamber is heated to 37° C. whereas the flea chamber is kept at room temperature.
After 2 days mortality in % is determined. 100% means all the fleas have been killed; 0% means none of the fleas have been killed.

[8] = tested on: adult cat fleas (Ctenocephalides felis); test: Ctenocephalides felis in-vitro contact test, adult cat flea; details: after 48 hours, read-out: efficacy (fleas dead or moribund); for pest or weed control at 1 µg/cm2, 100 g/ha: 1 μg/cm^2 (=100 g/ha); for pest or weed control at 5 µg/cm2, 500 g/ha: 5 μg/cm^2 (=500 g/ha)
Procedure, shortened: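 Acetone solution coated onto glass tube walls; 900 ppm gives 5 μg/cm². Once dry, 5–10 adult fleas per tube held at room temperature for 48 h. Efficacy (%) is the share of fleas dead or moribund, i.e. unable to climb away on a 45–50° C heating plate.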

[9] = tested on: larvae of the banded cucumber beetle (Diabrotica balteata); test: Diabrotica balteata spray test; details: 168 h, after 7 days, read-out: efficacy (seedling growth); for pest or weed control at 32 µg/disc, 100 g/ha: 100 g/ha (=32 μg/well); for pest or weed control at 6.4 µg/disc, 20 g/ha: 20 g/ha (=6.4 μg/well)
Procedure, shortened: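 Germinated wheat seedlings (5 per well, on agar) sprayed with compound in acetone/DMF with emulsifier-containing water, then infested with 10–20 Diabrotica balteata larvae. Efficacy (%) scored after 7 days from seedling growth: 100% = growth as untreated uninfested control, 0% = no seedlings grown.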

[10] = tested on: green peach aphid (Myzus persicae); test: Myzus persicae oral test; details: 120 h, 4 ppm, after 5 days
Protocol: Solvent: 100 parts by weight acetone
(§8) To produce a suitable preparation of active compound, 1 part by weight of active compound is mixed with the stated amount of solvent, and the concentrate is diluted with water to the desired concentration.
50 μL compound solution is filled in microtiter plates and 150 μL IPL41 insect medium (33%+15% sugar) is added to obtain a total volume of 200 μL per well. Afterwards the plates are sealed with parafilm through which a mixed population of the green peach aphid (Myzus persicae) can suck on the compound preparation.
(§9) After 5 days mortality in % is determined. 100% means all aphids have been killed and 0% means none of the aphids have been killed.

[11] = tested on: southern root-knot nematode (Meloidogyne incognita); test: Meloidogyne incognita test; details: 20 ppm, after 14 days
Protocol: Meloidogyne incognita—Test
Solvent: 125.0 parts by weight of acetone
as §8
Vessels are filled with sand, a solution of the active ingredient, a suspension containing eggs and larvae of the southern root-knot nematode (Meloidogyne incognita) and salad seeds. The salad seeds germinate and the seedlings grow. Galls develop in the roots.
After 14 days the nematicidal activity is determined based on the percentage of gall formation. 100% means no galls were found and 0% means the number of galls found on the roots of the treated plants was equal to that in untreated control plants.

[12] = tested on: fall armyworm larvae (Spodoptera frugiperda); test: Spodoptera frugiperda spray test; details: 168 h, maize leaf sections, after 7 days
Procedure, shortened: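 Compound dissolved in acetone/dimethylformamide, diluted in water containing 1000 ppm alkylarylpolyglycol ether emulsifier and sprayed onto maize leaf sections. Dried sections were infested with larvae; % mortality scored after 7 days (100% = all caterpillars killed, 0% = none).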

[13] = tested on: adult flies Musca domestica strain WHO-N; test: Musca domestica test (MUSCDO surface treatment & contact assay); details: surface concentration 20 mg/m^2, 30 minutes exposure, 24 hours after contact, read-out: mortality (efficacy)
Protocol: Musca domestica Test (MUSCDO Surface Treatment & Contact Assay)
as §1
as §2, with “flies” for “mosquitoes”, “Musca domestica” for “Aedes aegypti”, “WHO-N” for “MONHEIM”
as §3

[14] = tested on: green peach aphid (Myzus persicae); test: Myzus persicae spray test; details: foliar, 120 h, Chinese cabbage leaf disks, after 5 days
Protocol: Myzus persicae—Spray Test
Solvent: 78.0 parts by weight acetone • 1.5 parts by weight dimethylformamide
as §5
as §6, with “solvents” for “solvent,”, “and” for “and the concentrate”
Chinese cabbage (Brassica pekinensis) leaf disks infected with all instars of the green peach aphid (Myzus persicae), are sprayed with a preparation of the active ingredient of the desired concentration.
as §9

[15] = tested on: brown planthopper (Nilaparvata lugens); test: Nilaparvata lugens spray test; details: 96 h, 500 g/ha, rice plants, after 4 days
Protocol: Nilaparvata lugens—Spray Test
as §4, §5
as §6, with “solvents” for “solvent,”, “and” for “and the concentrate”
Rice plants (Oryza sativa) are sprayed with a preparation of the active ingredient of the desired concentration and the plants are infested with the brown planthopper (Nilaparvata lugens).
After 4 days mortality in % is determined. 100% means all planthoppers have been killed and 0% means none of the planthoppers have been killed.

[16] = surface concentration 4 mg/m^2, 30 minutes exposure

Row | SMILES | mortality at 4 mg/m2 [1, 16] | mortality at 20 mg/m2 [1] | mortality at 100 g/ha [2] | mortality at 4 mg/m2 [3, 16] | mortality at 20 mg/m2 [3] | pest or weed control at 0.004 mg [4] | pest or weed control at 5 µg/cm2, 500 g/ha [5] | pest or weed control at 1 µg/cm2, 100 g/ha [6] | pest or weed control at 5 µg/cm2, 500 g/ha [6] | mortality at 100 ppm [7] | pest or weed control at 1 µg/cm2, 100 g/ha [8] | pest or weed control at 5 µg/cm2, 500 g/ha [8] | pest or weed control at 32 µg/disc, 100 g/ha [9] | mortality at 4 ppm [10] | nematicidal activity (based on gall formation) [11] | pest or weed control at 6.4 µg/disc, 20 g/ha [9] | mortality at 100 g/ha [12] | mortality at 20 mg/m2 [13] | mortality at 100 g/ha [14] | mortality at 500 g/ha [15]
1 | CC(NC(=O)c1cncc(C(F)(F)F)c1)c1nccnc1-c1ncccn1 (racemic) [Example I-9, (rac)-N-(1-(3-(Pyrimidin-2-yl)pyrazin-2-yl)ethyl)-5-(trifluoromethyl)nicotinamide] | 80 to 100% | 80 to 100% | 90% | 80 to 100% | 80 to 100% | 100% | 80% | 100% | 100% | 80% |  |  |  |  |  |  |  |  |  | 
2 | CC(NC(=O)c1cc(C(F)(F)F)cc(C(F)(F)F)c1)c1nccnc1-c1ccc(C(=O)N2CCOCC2)cn1 (racemic) [Example I-34, (rac)-N-[1-{3-[5-(morpholine-4-carbonyl)pyridin-2-yl]pyrazin-2-yl}ethyl]-3,5-bis(trifluoromethyl)benzamide] |  |  |  |  |  |  | 80% | 100% | 100% |  | 80% | 90% | 80% | 100% |  |  |  |  |  | 
3 | CC(NC(=O)c1cc(Cl)cc(Br)c1)c1nccnc1-c1nccs1 (racemic) [Example I-54, (rac)-3-Bromo-5-chloro-N-{1-[3-(1,3-thiazol-2-yl)pyrazin-2-yl]ethyl}benzamide] |  |  |  |  |  |  | 80% |  | 90% |  |  |  | 100% |  | 90% |  |  |  |  | 
4 | CC(NC(=O)c1cc(Br)cc(C#N)c1)c1nccnc1-c1nccs1 (racemic) [Example I-55, (rac)-3-Bromo-5-cyano-N-{1-[3-(1,3-thiazol-2-yl)pyrazin-2-yl]ethyl}benzamide] |  |  |  |  |  |  |  |  |  | 100% |  |  |  |  | 100% |  |  |  |  | 
5 | CC(NC(=O)c1cc(C(F)(F)F)cc(C(F)(F)F)c1)c1nccnc1-c1ncc(C(=O)N(CC2CC2)C(C)C)s1 (racemic) [Example I-63, (rac)-2-(3-{1-[3,5-Bis(trifluoromethyl)benzamido]ethyl}pyrazin-2-yl)-N-(cyclopropylmethyl)-N-(propan-2-yl)-1,3-thiazole-5-carboxamide] |  |  |  |  |  | 100% |  |  |  |  |  |  | 100% |  | 90% | 100% | 100% |  |  | 
6 | CC(NC(=O)c1cc(Br)cc(OC(F)(F)F)c1)c1nccnc1-c1ccccn1 (centres unmarked) [Example I-17] |  |  |  |  |  | 100% |  | 80% | 90% | 100% |  |  | 100% |  | 90% | 100% | 83% |  |  | 
7 | CC(NC(=O)c1cc(C(F)(F)F)cc(C(F)(F)F)c1)c1nccnc1-c1ccc(Cl)cn1 (centres unmarked) [Example I-20] |  |  |  |  |  | 80% |  | 100% | 100% |  |  |  | 100% | 90% |  | 80% | 100% |  |  | 
8 | CCN(C)C(=O)c1cnc(-c2nccnc2[C@H](C)NC(=O)c2cc(C(F)(F)F)cc(C(F)(F)F)c2)s1 [Example I-85, 2-(3-{(1S)-1-[3,5-bis(trifluoromethyl)benzamido]ethyl}pyrazin-2-yl)-N-ethyl-N-methyl-1,3-thiazole-5-carboxamide] |  | 80 to 100% |  |  | 80 to 100% |  | 100% | 100% | 100% |  | 100% | 100% | 100% |  |  | 100% | 100% | 80 to 100% | 90% | 100%
